Legend:
[1] = tested on: rats subjected to SNL; experiment: Spinal nerve ligation (SNL) L5 model, thermal hyperalgesia; type: in vivo, rat; details: for effect on thermal hyperalgesia after treatment interruption: after 7 days of 32.25 μmol/kg ip; for paw withdrawal latency, thermal hyperalgesia: after 7 days of treatment; for reversal of hyperalgesia signs associated with neuropathic pain: ip during 7 days, 32.25 μmol/kg
Method: (§1) This experimental model was proposed by Kim and Chung [Kim, S. H.; Chung, J. M. Pain 1992, 50: 355-363] and consists of ligation of spinal nerves. Male Wistar rats, 180-220 g, were anesthetized with a mixture of ketamine and xylazine (60 mg/kg and 5 mg/kg, respectively) intraperitoneally. After the dorsal region asepsy, an incision was made between L5 and S1. The L6 transverse process was removed for locating the nerves L4 and L5, which were carefully isolated, and tight ligation of the L5 nerve with 6.0 silk thread was made, interrupting flow of the axon of the nerve. After this procedure, para-spinal muscles and skin were sutured, and then a topical antiseptic was applied. False operated animals (sham) were subjected to the same procedure, however the spinal nerve was not ligated.
This method aims to evaluate the animal behavior in response to hyperalgesic phenomenon resulting from the injury induced by the ligament of spinal nerve (L5). In this regard, paw withdrawal in response to thermal stimulus was used, and the thermal stimulus was induced by the radiant heat of an incandescent lamp bulb. The paw withdrawal test was performed as described for the assessment of thermal hyperalgesia in the sciatic nerve chronic constrictive injury model.
(§2) Differences were considered significant when p<0.05.
(§3) The treatment started on the 7th day after surgery. Compounds were diluted in water or DMSO and administered through intraperitoneal route on daily basis, during 7 days, at a dose of […]. The effectiveness of tested compounds was assessed on days 1, 3, and 7 days after treatment, always before the next administration of the compound. Latencies were also assessed on days 1, 3, and 7 after treatment interruption.

[2] = tested on: rats subjected to SNL; experiment: Spinal nerve ligation (SNL) L5 model, mechanical allodynia (digital Von Frey); type: in vivo, rat; details: for reversal of allodynia signs associated with neuropathic pain: ip during 7 days, 32.25 μmol/kg; for paw withdrawal threshold, mechanical allodynia: after 3 days of treatment, 32.25 μmol/kg ip, p<0.05
Method: as §1
To evaluate the development of mechanical allodynia, digital analgesimeter (Model EFF301; Insight Equipments), digitalized version coupled to a pointed filament (Von Frey model variant) was used. This test aims to assess changes in tactile sensitivity in response to a mechanical stimulus as a result of a neural damage. The device consisted of a hand-held force transducer fitted with a sensor tip, through which a pressure with increasing strength is applied against the footpad of the animals hindpaw to assess the threshold of paw withdrawal, that is, the digital analgesimeter records the maximal strength, in grams (g), in which the animal withstands until the paw withdrawal reflex.
Animals were placed in individual acrylic boxes and let to acclimate for 30 min before the beginning of the test. After this period, the thresholds of hindpaw withdrawal were determinded. For each hindpaw, five records of the withdrawal thresholds were made, and the average for each hindpaw was defined as the paw withdrawal threshold control.
as §3, §2

[3] = tested on: rats subjected to SNL; experiment: Spinal nerve ligation (SNL) L5 model, thermal hyperalgesia; type: in vivo, rat
[4] = tested on: rats subjected to SNL; experiment: Spinal nerve ligation (SNL) L5 model, mechanical allodynia (digital Von Frey); type: in vivo, rat; details: after the first day of treatment, p<0.05

SMILES | melting point | effect on thermal hyperalgesia after treatment interruption [1] | paw withdrawal latency, thermal hyperalgesia ([1]; 32.25 μmol/kg ip) | reversal of hyperalgesia signs associated with neuropathic pain [1] | reversal of allodynia signs associated with neuropathic pain [2] | paw withdrawal threshold, mechanical allodynia [2] | paw withdrawal latency, thermal hyperalgesia ([3]; oral 30 mg/kg, after 7 days of treatment) | paw withdrawal latency, thermal hyperalgesia ([3]; oral 100 mg/kg, after 1 day of treatment) | increase in paw withdrawal latency ([1]; since the first day of treatment, 32.25 μmol/kg ip) | reversion of the signs of mechanical allodynia ([4]; oral 30 mg/kg) | reversion of the signs of mechanical allodynia ([4]; oral 100 mg/kg) | analgesic effect on mechanical allodynia after treatment interruption ([2]; after 7 days of 32.25 μmol/kg ip)
Cl.OC1(c2ccc(Cl)cc2)CCN(CCc2conc2-c2ccc(F)cc2)CC1 [C15, 4-(4-chlorophenyl)-1-{2-[3-(4-fluorophenyl)-1,2-oxazol-4-yl]ethyl}piperidin-4-ol hydrochloride] | 222 to 226 °C (dec.) | maintained for 1 day after treatment interruption | statistically significant antinociceptive effect | effective in reverse the hyperalgesia and allodynia signs | effective in reverse the hyperalgesia and allodynia signs | – | – | – | – | – | – | –
Cl.Cl.Fc1ccc(-c2n[nH]cc2CCN2CCOCC2)cc1.O [C9, 4-{2-[3-(4-fluorophenyl)-1H-pyrazol-4-yl]ethyl}morpholine dihydrochloride monohydrate] | – | – | statistically significant antinociceptive effect | effective in reverse the hyperalgesia and allodynia signs | effective in reverse the hyperalgesia and allodynia signs | – | – | – | – | – | – | –
CN1CCN(CCc2c[nH]nc2-c2ccc(F)cc2)CC1.Cl.Cl.Cl.O.O [C11, 1-{2-[3-(4-fluorophenyl)-1H-pyrazol-4-yl]ethyl}-4-methylpiperazine trihydrochloride dihydrate] | – | – | statistically significant antinociceptive effect | effective in reverse the hyperalgesia and allodynia signs | effective in reverse the hyperalgesia and allodynia signs | significant (p<0.05) paw withdrawal threshold | – | – | – | – | – | –
Cl.Cl.Fc1ccc(-c2n[nH]cc2CCN2CCCCC2)cc1.O [C3, 1-{2-[3-(4-fluorophenyl)-1H-pyrazol-4-yl]ethyl}piperidine dihydrochloride monohydrate] | – | still observed up to 1 day after treatment interruption | – | – | – | significant (p<0.05) paw withdrawal threshold | significantly increased the paw withdrawal latency | significantly increased the paw withdrawal latency | statistically significant increase in paw withdrawal latency | reversion of the signs of mechanical allodynia | reversion of the signs of mechanical allodynia | analgesic effect is maintained until the first day after treatment interruption
CCOC(=O)C1(c2ccccc2)CCN(CCc2conc2-c2ccc(F)cc2)CC1.Cl [C17, Ethyl 1-{2-[3-(4-fluorophenyl)-1,2-oxazol-4-yl]ethyl}-4-phenylpiperidine-4-carboxylate hydrochloride] | – | – | statistically significant antinociceptive effect | effective in reverse the hyperalgesia and allodynia signs | effective in reverse the hyperalgesia and allodynia signs | – | – | – | – | – | – | –

— patent publication US20150266864A1, “HETEROAROMATIC COMPOUNDS, METHOD FOR PREPARING THE COMPOUNDS, PHARMACEUTICAL COMPOSITIONS, USES AND METHOD FOR TREATING ACUTE AND CHRONIC PAIN” (CRISTÁLIA PRODUTOS QUÍMICOS FARMACÊUTICOS LTDA, priority 2012, published 2015)
